Values of other authors as cited in paper PMC10591956 (Journal of controlled release : official journal of the …, 2023).

System: intraocular pressure (IOP)
Details: single intracameral injection, normotensive rabbits

For `Brc1c(NC2=NCCN2)ccc2nccnc12` [brimonidine], the “duration of IOP reduction” value is listed as 7 days.
